Experimental data reported in patent US11491157B2, “Cycloalkyl substituted pyrazolopyrimidines having activity against RSV” (priority 2018, dated 2022).
Structures can show the parent of a compound that is named as a salt.

Experiments:
in vitro = conditions: human
Method: (§1) Black 384-well clear-bottom microtiter plates (Corning, Amsterdam, The Netherlands) were filled via acoustic drop ejection using the echo liquid handler (Labcyte, Sunnyvale, Calif.). 200 nL of compound stock solutions (100% DMSO) were transferred to the assay plates. 9 serial 4-fold dilutions of compound were made, creating per quadrant the same compound concentration. The assay was initiated by adding 10 μL of culture medium to each well (RPMI medium without phenol red, 10% FBS-heat inactivated, 0.04% gentamycin (50 mg/mL). All addition steps are done by using a multidrop dispenser (Thermo Scientific, Erembodegem, Belgium). Next, rgRSV224 virus (MOI=1) diluted in culture medium was added to the plates. rgRSV224 virus is an engineered virus that includes an additional GFP gene (Hallak L K, Spillmann D, Collins P L, Peeples M E. Glycosaminoglycan sulfation requirements for respiratory syncytial virus infection; Journal of virology (2000), 74(22), 10508-13) and was in-licensed from the NIH (Bethesda, Md., USA). Finally, 20 μL of a HeLa cell suspension (3,000 cells/well) were plated. Medium, virus- and mock-infected controls were included in each test. The wells contain 0.05% DMSO per volume. Cells were incubated at 37° C. in a 5% CO2 atmosphere. Three days post-virus exposure, viral replication was quantified by measuring GFP expression in the cells by an in house developed MSM laser microscope (Tibotec, Beerse, Belgium). The EC50 was defined as the 50% inhibitory concentration for GFP expression. In parallel, compounds were incubated for three days in a set of white 384-well microtiter plates (Corning) and the cytotoxicity of compounds in HeLa cells was determined by measuring the ATP content of the cells using the ATPlite kit (Perkin Elmer, Zaventem, Belgium) according to the manufacturer's instructions. The CC50 was defined as the 50% concentration for cytotoxicity.

rgRSV224 virus = experiment: Antiviral activity: rgRSV224 (GFP) replication in HeLa cells; conditions: human respiratory syncytial virus, 72 h, read-out: RSV HELA EC50
Method: as §1

Compound: C[C@@H]1c2ccccc2CCN1C(=O)c1cc(C2CC2)n2nc(-c3cnc(C4C[C@H]4C(N)=O)cc3F)cc2n1 (relative stereo) [Compound 49, Trans-2-(5-{7-Cyclopropyl-5-[(1R)-1-methyl-1,2,3,4-tetrahydroisoquinoline-2-carbonyl]pyrazolo[1,5-a]pyrimidin-2-yl}-4-fluoropyridin-2-yl)cyclopropane-1-carboxamide]
- CC50 at 3 days (in vitro): 10.8 µM
- EC50 (rgRSV224 virus): 150 nM

Compound: C[C@@H]1c2ccccc2CCN1C(=O)c1cc(C2CC2)n2nc(-c3cnc(C4C[C@H]4C(=O)NS(C)(=O)=O)cc3F)cc2n1 (relative stereo) [Compound 50, Trans-2-(5-{7-Cyclopropyl-5-[(1R)-1-methyl-1,2,3,4-tetrahydroisoquinoline-2-carbonyl]pyrazolo[1,5-a]pyrimidin-2-yl}-4-fluoropyridin-2-yl)-N-methanesulfonylcyclopropane-1-carboxamide]
- CC50 at 3 days (in vitro): 53.3 µM
- EC50 (rgRSV224 virus): 389 nM

Compound: C[C@@H]1c2ccccc2CCN1C(=O)c1cc(C2CC2)n2nc(-c3ccc(C4C[C@H]4C(N)=O)nc3F)cc2n1 (relative stereo) [Compound 51, Trans-2-(5-{7-Cyclopropyl-5-[(1R)-1-methyl-1,2,3,4-tetrahydroisoquinoline-2-carbonyl]pyrazolo[1,5-a]pyrimidin-2-yl}-6-fluoropyridin-2-yl)cyclopropane-1-carboxamide]
- CC50 at 3 days (in vitro): 25.9 µM
- EC50 (rgRSV224 virus): 47 nM

Compound: C[C@@H]1c2ccccc2CCN1C(=O)c1cc(C2CC2)n2nc(-c3ccc(C4C[C@H]4C(=O)NS(C)(=O)=O)nc3F)cc2n1 (relative stereo) [Compound 52, Trans-2-(5-{7-Cyclopropyl-5-[(1R)-1-methyl-1,2,3,4-tetrahydroisoquinoline-2-carbonyl]pyrazolo[1,5-a]pyrimidin-2-yl}-6-fluoropyridin-2-yl)-N-methanesulfonylcyclopropane-1-carboxamide]
- CC50 at 3 days (in vitro): 65.3 µM
- EC50 (rgRSV224 virus): 117 nM

Compound: C[C@@H]1c2ccccc2CCN1C(=O)c1cc(-c2ccccc2)n2nc(-c3ccc([C@H]4C[C@@H]4C(=O)NS(C)(=O)=O)cc3F)cc2n1 (single isomer, unassigned) [Compound 31, (1*S,2*S)-2-(3-Fluoro-4-{5-[(1R)-1-methyl-1,2,3,4-tetrahydroisoquinoline-2-carbonyl]-7-phenylpyrazolo[1,5-a]pyrimidin-2-yl}phenyl)-N-methanesulfonyl-cyclopropane-1-carboxamide; propan-2-amine salt]
- CC50 at 3 days (in vitro): 35.2 µM
- EC50 (rgRSV224 virus): 40 nM

Compound: C[C@@H]1c2ccccc2CCN1C(=O)c1cc(-c2ccccc2)n2nc(-c3ccc([C@@H]4C[C@H]4C(=O)NS(C)(=O)=O)cc3F)cc2n1 (single isomer, unassigned) [Compound 32, (1*R,2*R)-2-(3-Fluoro-4-{5-[(1R)-1-methyl-1,2,3,4-tetrahydroisoquinoline-2-carbonyl]-7-phenylpyrazolo[1,5-a]pyrimidin-2-yl}phenyl)-N-methanesulfonyl-cyclopropane-1-carboxamide; propan-2-amine salt]
- CC50 at 3 days (in vitro): 37.3 µM
- EC50 (rgRSV224 virus): 61 nM

Compound: C[C@@H]1c2ccccc2CCN1C(=O)c1cc(C2CC2)n2nc(-c3ccc([C@H]4C[C@@H]4CO)cc3F)cc2n1 [Compound 1, [(1S,2S)-2-(4-{7-Cyclopropyl-5-[(1R)-1-methyl-1,2,3,4-tetrahydroisoquinoline-2-carbonyl]pyrazolo[1,5-a]pyrimidin-2-yl}-3-fluorophenyl)cyclopropyl]methanol]
- CC50 at 3 days (in vitro): 41.8 µM
- EC50 (rgRSV224 virus): 62 nM

Compound: C[C@@H]1c2ccccc2CCN1C(=O)c1cc(C2CC2)n2nc(-c3ccc([C@@H]4C[C@H]4c4cc(=O)[nH]o4)cc3F)cc2n1 [Compound 2, 5-[(1R,2R)-2-(4-{7-Cyclopropyl-5-[(1R)-1-methyl-1,2,3,4-tetrahydroisoquinoline-2-carbonyl]pyrazolo[1,5-a]pyrimidin-2-yl}-3-fluorophenyl)cyclopropyl]-2,3-dihydro-1,2-oxazol-3-one]
- CC50 at 3 days (in vitro): 42.5 µM
- EC50 (rgRSV224 virus): 84 nM

Compound: C[C@@H]1c2ccccc2CCN1C(=O)c1cc(C2CC2)n2nc(-c3ccc([C@H]4C[C@@H]4C#N)cc3F)cc2n1 [Compound 3, (1S,2S)-2-(4-{7-Cyclopropyl-5-[(1R)-1-methyl-1,2,3,4-tetrahydroisoquinoline-2-carbonyl]pyrazolo[1,5-a]pyrimidin-2-yl}-3-fluorophenyl)cyclopropane-1-carbonitrile]
- CC50 at 3 days (in vitro): > 100 µM
- EC50 (rgRSV224 virus): 319 nM

Compound: C[C@@H]1c2ccccc2CCN1C(=O)c1cc(C2CC2)n2nc(-c3ccc([C@H]4C[C@@H]4c4noc(=O)[nH]4)cc3F)cc2n1 [Compound 5, 3-[(1S,2S)-2-(4-{7-Cyclopropyl-5-[(1R)-1-methyl-1,2,3,4-tetrahydroisoquinoline-2-carbonyl]pyrazolo[1,5-a]pyrimidin-2-yl}-3-fluorophenyl)cyclopropyl]-4,5-dihydro-1,2,4-oxadiazol-5-one]
- CC50 at 3 days (in vitro): 41.8 µM
- EC50 (rgRSV224 virus): 98 nM

Compound: C[C@@H]1c2ccccc2CCN1C(=O)c1cc(C2CC2)n2nc(-c3ccc([C@H]4C[C@@H]4C(=O)NC#N)cc3F)cc2n1 [Compound 13, (1S,2S)—N-Cyano-2-(4-{7-cyclopropyl-5-[(1R)-1-methyl-1,2,3,4-tetrahydroisoquinoline-2-carbonyl]pyrazolo[1,5-a]pyrimidin-2-yl}-3-fluorophenyl)cyclopropane-1-carboxamide]
- CC50 at 3 days (in vitro): 49.8 µM
- EC50 (rgRSV224 virus): 731 nM

Compound: CCNC(=O)[C@H]1C[C@@H]1c1ccc(-c2cc3nc(C(=O)N4CCc5ccccc5[C@H]4C)cc(C4CC4)n3n2)c(F)c1 [Compound 14, (1S,2S)-2-(4-{7-Cyclopropyl-5-[(1R)-1-methyl-1,2,3,4-tetrahydroisoquinoline-2-carbonyl]pyrazolo[1,5-a]pyrimidin-2-yl}-3-fluorophenyl)-N-ethylcyclopropane-1-carboxamide]
- CC50 at 3 days (in vitro): > 50 µM
- EC50 (rgRSV224 virus): 170 nM

Compound: C#CCNC(=O)[C@H]1C[C@@H]1c1ccc(-c2cc3nc(C(=O)N4CCc5ccccc5[C@H]4C)cc(C4CC4)n3n2)c(F)c1 [Compound 17, (1S,2S)-2-(4-{7-Cyclopropyl-5-[(1R)-1-methyl-1,2,3,4-tetrahydroisoquinoline-2-carbonyl]-pyrazolo[1,5-a]pyrimidin-2-yl}-3-fluorophenyl)-N-(prop-2-yn-1-yl)cyclopropane-1-carboxamide]
- CC50 at 3 days (in vitro): > 100 µM
- EC50 (rgRSV224 virus): 182 nM

Compound: C[C@@H]1c2ccccc2CCN1C(=O)c1cc(C2CC2)n2nc(-c3ccc([C@H]4C[C@@H]4C(=O)NC4(C)CC4)cc3F)cc2n1 [Compound 20, (1S,2S)-2-(4-{7-Cyclopropyl-5-[(1R)-1-methyl-1,2,3,4-tetrahydroisoquinoline-2-carbonyl]-pyrazolo[1,5-a]pyrimidin-2-yl}-3-fluorophenyl)-N-(1-methylcyclopropyl)cyclopropane-1-carboxamide]
- CC50 at 3 days (in vitro): > 10 µM
- EC50 (rgRSV224 virus): 287 nM

Compound: C[C@@H]1c2ccccc2CCN1C(=O)c1cc(C2CC2)n2nc(-c3ccc([C@H]4C[C@@H]4C(=O)NCCO)cc3F)cc2n1 [Compound 21, (1S,2S)-2-(4-{7-Cyclopropyl-5-[(1R)-1-methyl-1,2,3,4-tetrahydroisoquinoline-2-carbonyl]-pyrazolo[1,5-a]pyrimidin-2-yl}-3-fluorophenyl)-N-(2-hydroxyethyl)-cyclopropane-1-carboxamide]
- CC50 at 3 days (in vitro): > 100 µM
- EC50 (rgRSV224 virus): 62 nM

Compound: C[C@@H]1c2ccccc2CCN1C(=O)c1cc(C2CC2)n2nc(-c3ccc([C@H]4C[C@@H]4C(=O)N(C)C)cc3F)cc2n1 [Compound 22, (1S,2S)-2-(4-{7-Cyclopropyl-5-[(1R)-1-methyl-1,2,3,4-tetrahydroisoquinoline-2-carbonyl]-pyrazolo[1,5-a]pyrimidin-2-yl}-3-fluorophenyl)-N,N-dimethylcyclopropane-1-carboxamide]
- CC50 at 3 days (in vitro): 51.8 µM
- EC50 (rgRSV224 virus): 427 nM

Compound: C[C@@H]1c2ccccc2CCN1C(=O)c1cc(C2CC2)n2nc(-c3ccc([C@H]4C[C@@H]4C(=O)N4CCCC4)cc3F)cc2n1 [Compound 23, (1R)-2-(7-Cyclopropyl-2-{2-fluoro-4-[(1S,2S)-2-(pyrrolidine-1-carbonyl)cyclopropyl]-phenyl}pyrazolo[1,5-a]pyrimidine-5-carbonyl)-1-methyl-1,2,3,4-tetrahydroisoquinoline]
- CC50 at 3 days (in vitro): 16.9 µM
- EC50 (rgRSV224 virus): 427 nM

Compound: C[C@@H]1c2ccccc2CCN1C(=O)c1cc(C2CC2)n2nc(-c3ccc([C@H]4C[C@@H]4C(=O)NS(=O)(=O)C(F)(F)F)cc3F)cc2n1 [Compound 29, (1S,2S)-2-(4-{7-Cyclopropyl-5-[(1R)-1-methyl-1,2,3,4-tetrahydroisoquinoline-2-carbonyl]pyrazolo[1,5-a]pyrimidin-2-yl}-3-fluorophenyl)-N-trifluoromethane-sulfonylcyclopropane-1-carboxamide amine salt]
- CC50 at 3 days (in vitro): > 100 µM
- EC50 (rgRSV224 virus): 2360 nM

Compound: COC(=O)N[C@H]1C[C@@H]1c1ccc(-c2cc3nc(C(=O)N4CCc5ccccc5[C@H]4C)cc(C4CC4)n3n2)c(F)c1 [Compound 33, Methyl N-[(1S,2R)-2-(4-{7-cyclopropyl-5-[(1R)-1-methyl-1,2,3,4-tetrahydroisoquinoline-2-carbonyl]pyrazolo[1,5-a]pyrimidin-2-yl}-3-fluorophenyl)cyclopropyl]carbamate]
- CC50 at 3 days (in vitro): > 100 µM
- EC50 (rgRSV224 virus): 155 nM

Compound: C[C@@H]1c2ccccc2CCN1C(=O)c1cc(C2CC2)n2nc(-c3ccc([C@H]4C[C@@H]4NC(=O)C4CC4)cc3F)cc2n1 [Compound 35, N-[(1S,2R)-2-(4-{7-Cyclopropyl-5-[(1R)-1-methyl-1,2,3,4-tetrahydroisoquinoline-2-carbonyl]pyrazolo[1,5-a]pyrimidin-2-yl}-3-fluorophenyl)cyclopropyl]cyclopropane-carboxamide]
- CC50 at 3 days (in vitro): > 100 µM
- EC50 (rgRSV224 virus): 57 nM

Compound: C[C@@H]1c2ccccc2CCN1C(=O)c1cc(C2CC2)n2nc(-c3ccc([C@H]4C[C@@H]4NS(C)(=O)=O)cc3F)cc2n1 [Compound 36, N-[(1S,2R)-2-(4-{7-Cyclopropyl-5-[(1R)-1-methyl-1,2,3,4-tetrahydroisoquinoline-2-carbonyl]pyrazolo[1,5-a]pyrimidin-2-yl}-3-fluorophenyl)cyclopropyl]methanesulfonamide]
- CC50 at 3 days (in vitro): > 100 µM
- EC50 (rgRSV224 virus): 110 nM
